Converted amounts (≈) assume the structure as drawn.
Tests used:
Type in all cases: functional, cell-based
[1] = test system: KB; assay: Cytotoxicity against human KB cells by clonogenic assay
[2] = test system: PA-1; assay: Cytotoxicity against human PA1 cells by MTT assay
[3] = test system: COLO 320DM; assay: Cytotoxicity against human Colo320DM cells by MTT assay
[4] = test system: MCF7; assay: Cytotoxicity against human MCF7 cells by MTT assay
[5] = test system: KB; assay: Cytotoxicity against human KB cells by MTT assay
[6] = test system: COLO 320DM; assay: Cytotoxicity against human Colo320DM cells by clonogenic assay
[7] = test system: WRL68; assay: Cytotoxicity against human WRL68 cells by clonogenic assay
[8] = test system: WRL68; assay: Cytotoxicity against human WRL68 cells by MTT assay
[9] = test system: MCF7; assay: Cytotoxicity against human MCF7 cells by clonogenic assay
[10] = test system: PA-1; assay: Cytotoxicity against human PA1 cells by clonogenic assay

Structure (SMILES) | IC50 [1] [µg/mL] | IC50 [2] [µg/mL] | IC50 [3] [µg/mL] | IC50 [4] [µg/mL] | IC50 [5] [µg/mL] | IC50 [6] [µg/mL] | IC50 [7] [µg/mL] | IC50 [8] [µg/mL] | IC50 [9] [µg/mL] | IC50 [10] [µg/mL]
C=C1[C@H]2C[C@]3(O)C[C@H](OC(C)=O)C(C)=C([C@@H](OC(C)=O)[C@H](OC(C)=O)[C@]2(C)[C@@H](OC(C)=O)C[C@@H]1O)C3(C)C | 1.23 (≈ 2.29 µM) | 0.01 (≈ 0.0186 µM) | 0.23 (≈ 0.429 µM) | 0.18 (≈ 0.335 µM) | 0.04 (≈ 0.0745 µM) | 1.82 (≈ 3.39 µM) | 12.8 (≈ 23.9 µM) | 1.65 (≈ 3.07 µM) | 8.42 (≈ 15.7 µM) | 0.85 (≈ 1.58 µM)
CC[C@]1(O)C[C@@H]2CN(CCc3c([nH]c4ccccc34)[C@@](C(=O)OC)(c3cc4c(cc3OC)N(C)[C@H]3[C@@](O)(C(=O)OC)[C@H](OC(C)=O)[C@]5(CC)C=CCN6CC[C@]43[C@@H]65)C2)C1 [VINBLASTINE] | 0.46 (≈ 0.567 µM) | 0.025 (≈ 0.0308 µM) | 0.52 (≈ 0.641 µM) | 0.02 (≈ 0.0247 µM) | 0.046 (≈ 0.0567 µM) | 1.6 (≈ 1.97 µM) | 2.6 (≈ 3.21 µM) | 1.45 (≈ 1.79 µM) | 0.22 (≈ 0.271 µM) | 1.15 (≈ 1.42 µM)
CC[C@]1(O)C[C@H]2CN(CCc3c([nH]c4ccccc34)[C@@](C(=O)OC)(c3cc4c(cc3OC)N(C=O)[C@H]3[C@@](O)(C(=O)OC)[C@H](OC(C)=O)[C@]5(CC)C=CCN6CC[C@]43[C@@H]65)C2)C1 [VINCRISTINE] | 0.25 (≈ 0.303 µM) | 0.01 (≈ 0.0121 µM) | 0.46 (≈ 0.558 µM) | 0.05 (≈ 0.0606 µM) | 0.02 (≈ 0.0242 µM) | 1.5 (≈ 1.82 µM) | 8.5 (≈ 10.3 µM) | 1.42 (≈ 1.72 µM) | 0.15 (≈ 0.182 µM) | 1 (≈ 1.21 µM)

Reference: ChEMBL document CHEMBL1146977, “Taxoid from the needles of the Himalayan yew Taxus wallichiana with cytotoxic and immunomodulatory activities” (Bioorg Med Chem Lett, 2006)
